Laboratory results published in patent US20260014119A1, “EMOPAMIL-BINDING PROTEIN INHIBITORS AND USES THEREOF” (BIOGEN MA INC., priority 2022, published 2026).

target: T1, EBP (Homo sapiens, UniProt Q15125); experiment: EBP Functional Assay (EBP immunoaffinity LC-MS assay); assay type: biochemical; conditions: EBP enzyme from HEK293T cells; 30 min with inhibitor, then zymosterol-d5 at 37° C. for 4 h; percent conversion by LC-APCI MRM MS
T1 construct: HEK293T cells were utilized as the source of EBP enzyme; endogenous in cells; host or cells: HEK293T
Procedure: The EBP immunoaffinity (IA) LC-MS assay measures the potency of small molecule inhibitors of EBP by quantifying their concentration-dependent changes in the enzyme's substrate and product using liquid chromatography atmospheric pressure chemical ionization multiple reaction monitoring mass spectrometry (LC-APCI MRM MS). HEK293T cells were utilized as the source of EBP enzyme. The enzyme was incubated with the small molecule inhibitors at variable concentrations for 30 min. Deuterated form of EBP substrate, zymosterol-d5 (Avanti Polar Lipids, Cat #700068P-1 mg), was then added and the plate was incubated at 37° C. for 4 h. Finally, the sterol isomers were extracted and injected to LC-APCI MRM MS. MRM transition used for the quantification for both zymosterol and […] (substrate and product of EBP enzymatic reaction, respectively) is 372.3-203.2, CE 30 and DP 80 in positive ion mode. Percent conversion of the zymosterol-d5 to dehydrolathosterol-d5 was used to derive IC50 curves. Tasin-1 (1′-[(4-Methoxyphenyl)sulfonyl]-4-methyl-1,4′-bipiperidine, CAS 792927-06-1) was used as the reference small molecule inhibitor.
Percent conversion versus the compound concentration data were fit to the following 4-parameter logistic model to generate IC50 curves: […]

T1 sequence (Q15125 whole entry): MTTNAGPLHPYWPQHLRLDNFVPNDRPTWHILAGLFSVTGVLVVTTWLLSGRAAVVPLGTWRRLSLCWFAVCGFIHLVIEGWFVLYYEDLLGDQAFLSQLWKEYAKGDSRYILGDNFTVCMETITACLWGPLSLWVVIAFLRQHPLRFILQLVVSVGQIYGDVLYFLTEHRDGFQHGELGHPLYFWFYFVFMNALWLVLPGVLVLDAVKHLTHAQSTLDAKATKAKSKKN

Question: `Cc1nc(C(F)(F)F)ccc1S(=O)(=O)N1C[C@H]2CN(C3CC4(COC4)C3)C[C@@H]2C1` (racemic) [Example 50, Rac-(3aR,6aR)-2-((2-methyl-6-(trifluoromethyl)pyridin-3-yl)sulfonyl)-5-(2-oxaspiro[3.3]heptan-6-yl)octahydropyrrolo[3,4-c]pyrrole] was tested. Which IC50 did it give?
Answer: < 100 nM

Question: For `Cc1nc(C(F)(F)F)ccc1S(=O)(=O)N1C[C@H]2CN(CC3CCOCC3)C[C@@H]2C1` (racemic) [Example 51, Rac-(3aR,6aR)-2-((2-methyl-6-(trifluoromethyl)pyridin-3-yl)sulfonyl)-5-((tetrahydro-2H-pyran-4-yl)methyl)octahydropyrrolo[3,4-c]pyrrole], which IC50 is on record?
Answer: < 100 nM

Question: For `Cc1nc(C(F)(F)F)ccc1S(=O)(=O)N1C[C@H]2CN(CC3COC3)C[C@@H]2C1` (racemic) [Example 52, Rac-(3aR,6aR)-2-((2-methyl-6-(trifluoromethyl)pyridin-3-yl)sulfonyl)-5-(oxetan-3-ylmethyl)octahydropyrrolo[3,4-c]pyrrole], which IC50 is on record?
Answer: > 500 nM

Question: How did the IC50 turn out when `Cc1nc(C(F)(F)F)ccc1S(=O)(=O)N1C[C@H]2CN(CC34CCOC(C)(C3)C4)C[C@@H]2C1` (racemic) [Example 53, Rac-(3aR,6aR)-2-((1-methyl-2-oxabicyclo[3.1.1]heptan-5-yl)methyl)-5-((2-methyl-6-(trifluoromethyl)pyridin-3-yl)sulfonyl)octahydropyrrolo[3,4-c]pyrrole] was run?
Answer: 100 to 500 nM

Question: Which IC50 does the source give for `Cc1nc(C(F)(F)F)ccc1S(=O)(=O)N1C[C@H]2CN(CC34COC(C)(C3)C4)C[C@@H]2C1` (racemic) [Example 54] here?
Answer: 100 to 500 nM

Question: For `Cc1nc(C(F)(F)F)ncc1S(=O)(=O)N1C[C@H]2CN(C3CCOCC3)C[C@@H]2C1` (racemic) [Example 57, Rac-(3aR,6aR)-2-((4-methyl-2-(trifluoromethyl)pyrimidin-5-yl)sulfonyl)-5-(tetrahydro-2H-pyran-4-yl)octahydropyrrolo[3,4-c]pyrrole], which IC50 is on record?
Answer: 100 to 500 nM

Question: Which IC50 does the source give for `Cc1nc(C(F)(F)F)ncc1S(=O)(=O)N1C[C@H]2CN(C3CC4(COC4)C3)C[C@@H]2C1` (racemic) [Example 58, Rac-(3aR,6aR)-2-((4-methyl-2-(trifluoromethyl)pyrimidin-5-yl)sulfonyl)-5-(2-oxaspiro[3.3]heptan-6-yl)octahydropyrrolo[3,4-c]pyrrole] here?
Answer: 100 to 500 nM

Question: How did the IC50 turn out when `Cc1nc(C(F)(F)F)ncc1S(=O)(=O)N1C[C@H]2CN(CC3CCOCC3)C[C@@H]2C1` (racemic) [Example 59, Rac-(3aR,6aR)-2-((4-methyl-2-(trifluoromethyl)pyrimidin-5-yl)sulfonyl)-5-((tetrahydro-2H-pyran-4-yl)methyl)octahydropyrrolo[3,4-c]pyrrole] was run?
Answer: 100 to 500 nM

Question: With `Cc1nc(C(F)(F)F)ccc1S(=O)(=O)N1C[C@@H]2CN(C3CCOCC3)C[C@H]2C1` (single isomer, unassigned) [Example 47] as the compound, how does the IC50 read?
Answer: 100 to 500 nM

Question: How did the IC50 turn out when `Cc1nc(C(F)(F)F)ccc1S(=O)(=O)N1C[C@H]2CN(C3CCOCC3)C[C@@H]2C1` (single isomer, unassigned) [Example 48] was run?
Answer: 100 to 500 nM

Question: For `Cc1nc(C(F)(F)F)ccc1S(=O)(=O)N1C[C@@H]2CN(CC34COC(C)(C3)C4)C[C@H]2C1` (single isomer, unassigned) [Example 55], which IC50 is on record?
Answer: 100 to 500 nM

Question: `Cc1nc(C(F)(F)F)ccc1S(=O)(=O)N1C[C@H]2CN(CC34COC(C)(C3)C4)C[C@@H]2C1` (single isomer, unassigned) [Example 56] was tested. Which IC50 did it give?
Answer: 100 to 500 nM

Question: How did the IC50 turn out when `Cc1ccc(S(=O)(=O)N2C[C@H]3C[C@@H](NCC4CCOCC4)C[C@H]3C2)c(C)c1` [Example 1, (3aR,5r,6aS)-2-((2,4-Dimethylphenyl)sulfonyl)-N-((tetrahydro-2H-pyran-4-yl)methyl)octahydrocyclopenta[c]pyrrol-5-amine] was run?
Answer: < 100 nM

Question: With `O=S(=O)(c1ccc(OC(F)F)cc1)N1C[C@H]2C[C@@H](NCC3CCOCC3)C[C@H]2C1` [Example 2, (3aR,5r,6aS)-2-((4-(Difluoromethoxy)phenyl)sulfonyl)-N-((tetrahydro-2H-pyran-4-yl)methyl)octahydrocyclopenta[c]pyrrol-5-amine] as the compound, how does the IC50 read?
Answer: 100 to 500 nM

Question: `Cc1ccc(S(=O)(=O)N2C[C@H]3C[C@H](N4CCC(C)CC4)C[C@H]3C2)c(C)c1` [Example 3, (3aR,5s,6aS)-2-((2,4-Dimethylphenyl)sulfonyl)-5-(4-methylpiperidin-1-yl)octahydrocyclopenta[c]pyrrole] was tested. Which IC50 did it give?
Answer: < 100 nM

Question: Which IC50 does the source give for `CC1CCN([C@H]2C[C@@H]3CN(S(=O)(=O)c4ccc(OC(F)F)cc4)C[C@@H]3C2)CC1` [Example 4, (3aR,5s,6aS)-2-((4-(Difluoromethoxy)phenyl)sulfonyl)-5-(4-methylpiperidin-1-yl)octahydrocyclopenta[c]pyrrole] here?
Answer: 100 to 500 nM

Question: `Cc1ccc(S(=O)(=O)N2C[C@H]3C[C@@H](N4CCC(C)CC4)C[C@H]3C2)c(C)c1` [Example 5, (3aR,5r,6aS)-2-((2,4-Dimethylphenyl)sulfonyl)-5-(4-methylpiperidin-1-yl)octahydrocyclopenta[c]pyrrole] was tested. Which IC50 did it give?
Answer: < 100 nM

Question: With `CC1CCN([C@@H]2C[C@@H]3CN(S(=O)(=O)c4ccc(OC(F)F)cc4)C[C@@H]3C2)CC1` [Example 6, (3aR,5r,6aS)-2-((4-(Difluoromethoxy)phenyl)sulfonyl)-5-(4-methylpiperidin-1-yl)octahydrocyclopenta[c]pyrrole] as the compound, how does the IC50 read?
Answer: 100 to 500 nM

Question: With `Cc1ccc(S(=O)(=O)N2C[C@H]3C[C@H](NCC4CCOCC4)C[C@H]3C2)c(C)c1` [Example 7, (3aR,5s,6aS)-2-((2,4-Dimethylphenyl)sulfonyl)-N-((tetrahydro-2H-pyran-4-yl)methyl)octahydrocyclopenta[c]pyrrol-5-amine] as the compound, how does the IC50 read?
Answer: < 100 nM

Question: For `O=S(=O)(c1ccc(OC(F)F)cc1)N1C[C@H]2C[C@H](NCC3CCOCC3)C[C@H]2C1` [Example 8, (3aR,5s,6aS)-2-((4-(Difluoromethoxy)phenyl)sulfonyl)-N-((tetrahydro-2H-pyran-4-yl)methyl)octahydrocyclopenta[c]pyrrol-5-amine], which IC50 is on record?
Answer: 100 to 500 nM

Question: Which IC50 does the source give for `COc1ncc(C)cc1S(=O)(=O)N1C[C@H]2C[C@H](NCC3CCOCC3)C[C@H]2C1` [Example 9, (3aR,5s,6aS)-2-((2-Methoxy-5-methylpyridin-3-yl)sulfonyl)-N-((tetrahydro-2H-pyran-4-yl)methyl)octahydrocyclopenta[c]pyrrol-5-amine] here?
Answer: 100 to 500 nM

Question: Which IC50 does the source give for `Cc1cc(C)c(S(=O)(=O)N2C[C@H]3C[C@H](NCC4CCOCC4)C[C@H]3C2)cn1` [Example 10, (3aR,5s,6aS)-2-((4,6-Dimethylpyridin-3-yl)sulfonyl)-N-((tetrahydro-2H-pyran-4-yl)methyl)octahydrocyclopenta[c]pyrrol-5-amine] here?
Answer: > 500 nM

Question: For `Cn1nc(C2CC2)cc1S(=O)(=O)N1C[C@H]2C[C@H](NCC3CCOCC3)C[C@H]2C1` [Example 12, (3aR,5s,6aS)-2-((3-Cyclopropyl-1-methyl-1H-pyrazol-5-yl)sulfonyl)-N-((tetrahydro-2H-pyran-4-yl)methyl)octahydrocyclopenta[c]pyrrol-5-amine], which IC50 is on record?
Answer: 100 to 500 nM

Question: Which IC50 does the source give for `O=S(=O)(c1ccc(OC(F)F)cc1)N1C[C@H]2C[C@H](N3CCOCC3)C[C@H]2C1` [Example 13, 4-((3aR,5r,6aS)-2-((4-(Difluoromethoxy)phenyl)sulfonyl)octahydrocyclopenta[c]pyrrol-5-yl)morpholine] here?
Answer: > 500 nM

Question: `O=S(=O)(c1ccc(OC(F)F)cc1)N1C[C@H]2C[C@H](NC3COC3)C[C@H]2C1` [Example 14, (3aR,5s,6aS)-2-((4-(Difluoromethoxy)phenyl)sulfonyl)-N-(oxetan-3-yl)octahydrocyclopenta[c]pyrrol-5-amine] was tested. Which IC50 did it give?
Answer: > 500 nM

Question: For `O=S(=O)(c1ccc(OC(F)F)cc1)N1C[C@H]2C[C@H](NC3CCOC3)C[C@H]2C1` (stereo partly drawn) [Example 15, (3aR,5s,6aS)-2-((4-(Difluoromethoxy)phenyl)sulfonyl)-N-(tetrahydrofuran-3-yl)octahydrocyclopenta[c]pyrrol-5-amine], which IC50 is on record?
Answer: 100 to 500 nM

Question: Which IC50 does the source give for `O=S(=O)(c1ccc(OC(F)F)cc1)N1C[C@H]2C[C@H](NC3CCOCC3)C[C@H]2C1` [Example 16, (3aR,5s,6aS)-2-((4-(Difluoromethoxy)phenyl)sulfonyl)-N-(tetrahydro-2H-pyran-4-yl)octahydrocyclopenta[c]pyrrol-5-amine] here?
Answer: < 100 nM

Question: How did the IC50 turn out when `CN(CC1CCOCC1)[C@H]1C[C@@H]2CN(S(=O)(=O)c3ccc(OC(F)F)cc3)C[C@@H]2C1` [Example 17, (3aR,5s,6aS)-2-((4-(Difluoromethoxy)phenyl)sulfonyl)-N-methyl-N-((tetrahydro-2H-pyran-4-yl)methyl)octahydrocyclopenta[c]pyrrol-5-amine] was run?
Answer: 100 to 500 nM

Question: How did the IC50 turn out when `O=S(=O)(c1ccc(OC(F)F)cc1)N1C[C@H]2C[C@H](NC3CC4(COC4)C3)C[C@H]2C1` [Example 19, (3aR,5s,6aS)-2-((4-(Difluoromethoxy)phenyl)sulfonyl)-N-(2-oxaspiro[3.3]heptan-6-yl)octahydrocyclopenta[c]pyrrol-5-amine] was run?
Answer: 100 to 500 nM
